Results as given in patent US10034915B2, “Small heat shock proteins and active fragments thereof as a therapy for inflammation and ischemia” (The Board of Trustees of the Leland Stanford Junior …, priority 2011, dated 2018).
Entries after “also recorded” stand apart in the source; their conditions may differ.

B1: Arg120Gly: naturally occurring mutated HSPB5, arginine to glycine at amino acid position 120 (protein, UniProt P02511 1-175, looked up, variant R120G)
Alpha-crystallin B chain: MDIAIHHPWIRRPFFPFHSPSRLFDQFFGEHLLESDLFPTSTSLSPFYLRPPSFLRAPSWFDTGLSEMRLEKDRFSVNLDVKHFSPEELKVKVLGDVIEVHGKHEERQDEHGFISREFHGKYRIPADVDPLTITSSLSSDGVLTVNGPRKQVSGPERTIPITREEKPAVTAAPKK
B2: Hsp22 (protein, UniProt O14558 1-160, looked up)
Heat shock protein beta-6: MEIPVPVQPSWLRRASAPLPGLSAPGRLFDQRFGEGLLEAELAALCPTTLAPYYLRAPSVALPVAQVPTDPGHFSVLLDVKHFSPEEIAVKVVGEHVEVHARHEERPDEHGFVAREFHRRYRLPPGVDPAAVTSALSPEGVLSIQAAPASAQAPPPAAAK
notes: recombinant human small heat shock protein
B3: Hsp20 (protein, UniProt Q9UJY1 1-196, looked up)
Heat shock protein beta-8: MADGQMPFSCHYPSRLRRDPFRDSPLSSRLLDDGFGMDPFPDDLTASWPDWALPRLSSAWPGTLRSGMVPRGPTATARFGVPAEGRTPPPFPGEPWKVCVNVHSFKPEELMVKTKDGYVEVSGKHEEKQQEGGIVSKNFTKKIQLPAEVDPVTVFASLSPEGLLIIEAPQVPPYSTFGESSFNNELPQDSQEVTCT
notes: as for B2
B4: myotonic dystrophy protein kinase binding protein, MKBP (protein, UniProt Q16082 1-182, looked up)
Heat shock protein beta-2: MSGRSVPHAHPATAEYEFANPSRLGEQRFGEGLLPEEILTPTLYHGYYVRPRAAPAGEGSRAGASELRLSEGKFQAFLDVSHFTPDEVTVRTVDNLLEVSARHPQRLDRHGFVSREFCRTYVLPADVDPWRVRAALSHDGILNLEAPRGGRHLDTEVNEVYISLLPAPPDPEEEEEAAIVEP
notes: as for B2
B5: HSPB9: recombinant human small heat shock protein (protein, UniProt Q9BQS6 1-159, looked up)
Heat shock protein beta-9: MQRVGNTFSNESRVASRCPSVGLAERNRVATMPVRLLRDSPAAQEDNDHARDGFQMKLDAHGFAPEELVVQVDGQWLMVTGQQQLDVRDPERVSYRMSQKVHRKMLPSNLSPTAMTCCLTPSGQLWVRGQCVALALPEAQTGPSPRLGSLGSKASNLTR
B6: HSPB3: recombinant human small heat shock protein (protein, UniProt Q12988 1-150, looked up)
Heat shock protein beta-3: MAKIILRHLIEIPVRYQEEFEARGLEDCRLDHALYALPGPTIVDLRKTRAAQSPPVDSAAETPPREGKSHFQILLDVVQFLPEDIIIQTFEGWLLIKAQHGTRMDEHGFISRSFTRQYKLPDGVEIKDLSAVLCHDGILVVEVKDPVGTK

Tests used:
EAE mice = test: EAE in 129Sv WT mice immunized with MOG35-55/CFA, clinical scoring; format: in vivo, mouse; details: for therapeutic efficacy of peptide in EAE (clinical scores): peptide every other day from peak of disease (10 μg, or 1 μg equimolar to 10 μg protein); for AREA UNDER THE CURVE (amount higher than HSPB5 normalized to PBS): average EAE scores, peptide every other day from peak of disease, 129Sv WT mice, n=5 per group; for EAE clinical scores over the course of the whole experiment (area under the curve): 10 μg sHSP protein IP every other day from peak of disease; for EAE clinical scores over the course of the whole experiment (area under the curve) / clinical paralysis / EAE clinical scores: vs PBS; for clinical paralysis / EAE clinical scores: 10 μg sHSP protein IP every other day starting at the peak of disease
Experimental: To investigate if the therapeutic efficacy of HSPB5 is a common feature of the whole family of small heat shock proteins, we expressed recombinant HSPB1, HSPB4, and HSPB5. We then treated EAE mice every other day starting at the peak of disease, when clinical paralysis is apparent, with an intraperitoneal (IP) administration of 10 μg of either HSPB1, HSPB4, HSPB5, or PBS as the vehicle control. […] Treating mice in vivo with HSPB1, HSPB4, or HSPB5 led to a reduction in the production of pro-inflammatory cytokines by MOG stimulated splenocytes taken from MOG immunized mice (FIG. 1c). Improvement of the clinical score was dependent on continued dosing of the sHSP. After dosing was stopped, symptoms returned, and paralysis worsened after 96 hours.
Therapeutic Peptides from HSPB5 in EAE. […] We made a series of overlapping, 15-mer peptide fragments of HSPB5 and treated mice at the peak of disease with 10 μg of each peptide every other day, using HSPB5 as a positive control and PBS as a negative control.
EAE induction and scoring. Mice were immunized subcutaneously with 100 μL of myelin oligodendrocyte glycoprotein (MOG) peptide 35-55 (2 mg/mL) and Complete Freund's adjuvant (CFA) (4 mg/mL) on Day 0. […] Mice were randomized at the peak of disease into the treatment groups where they received 10 ug/200 μL of sHSP, 1 μg/200 uL of sHSP peptide, or 200 μL of PBS (vehicle) every other day. Mice were scored every day on a clinical scoring system: 0, healthy mouse; 1, limp tail; 2, weak hindlimbs; 3, complete hindlimb paralysis; 4, weak forelimbs and paralyzed hindlimbs; 5, dead.

[1] = system: pro-inflammatory cytokines of MOG stimulated splenocytes; test: Peripheral immune cell activation: cytokine production by MOG stimulated splenocytes of treated MOG immunized mice (ELISA); design: species or system mouse; details: mice treated in vivo; splenocytes from MOG immunized mice
Experimental: Peripheral immune cell activation and cytokine analysis. Spleens and lymph nodes were isolated from mice 9 days after immunization with MOG35-55 and CFA. Spleens were mechanically disrupted to isolate single cell splencytes suspension. Cells were cultured in flat bottomed, 96-well plates in media (RPMI 1640 supplemented with […] L-glutamine, 1 mM sodium pyruvate, 0.1 mM non-essential amino acids, 100 U/mL penicillin, 0.1 mg/mL streptomycin, 0.5 uM 2-mercaptoethanol, and 10% fetal calf serum). Cells were stimulated with MOG35-55 (5 ug/mL, 10 ug/mL, and 20 ug/mL). For all activation assays, splenocytes were pooled from three mice per group and triplicate wells were plated. Supernatants of cells were collected at the time of peak production for each cytokine (48 hrs: IL-2, IL-12p40, IL-6; 72 hrs: TNFα and IFNγ; 96 hrs: IL-17; 120 hrs: IL-10). Cytokines were measured in the supernatants using anti-mouse OPTEIA ELISA kits (BD Pharmingen for IFNγ, IL-10, IL-2, IL-6, and IL-12p40; R&D Systems for IL-17 and TNFα).

mice with EAE = test: EAE in C57BL/6J mice (MOG35-55/CFA, pertussis toxin), neurological impairment scoring; format: in vivo, mouse; details: intraperitoneal 10-50 μg every other day starting at the peak of disease
Experimental: It was tested if the chaperone function of residues 73-92 of HspB5 were capable of reducing the symptoms of experimental allergic encephalomyelist (EAE), by inducing EAE in 9-week old female C57BL/6J by immunized subcutaneously with an emulsion containing 200 μg myelin oligodendrocyte glycoprotein 35-55 (MOG35-55; […] (SEQ ID NO:24)) in saline and an equal volume of complete Freund's adjuvant. Intraperitoneal injection of pertussis toxin at 0 and 48 h post-immunization results in paralysis beginning at day 12.

[2] = system: partially denatured proteins; details: in vitro, literature; cited from earlier work

| Molecule | AREA UNDER THE CURVE (amount higher than HSPB5 normalized to PBS) (EAE mice) | clinical paralysis / EAE clinical scores (EAE mice) | also measured |
| --- | --- | --- | --- |
| DKFVIFLDVKHFSPEDLTVK [HSPB4 73-92] | – | – | therapeutic efficacy of peptide in EAE (clinical scores) (EAE mice): therapeutic in EAE; therapeutic efficacy of peptide in EAE (clinical scores) (EAE mice; listed as HSPB4 73-93): as therapeutic as full length proteins; production of pro-inflammatory cytokines by MOG stimulated splenocytes [1]: decrease peripheral immune activation |
| DRWRVSLDVNHFAPDELTVK [HSPB1 73-92] | – | – | therapeutic efficacy of peptide in EAE (clinical scores) (EAE mice): therapeutic in EAE; therapeutic efficacy of peptide in EAE (clinical scores) (EAE mice; listed as HSPB1 73-93): as therapeutic as full length proteins; production of pro-inflammatory cytokines by MOG stimulated splenocytes [1]: decrease peripheral immune activation |
| EKDRFSVNLDVKHFS (listed as Homo sapiens) [HSPB5 peptide 71-85] | 0.06 | – | therapeutic efficacy of peptide in EAE (clinical scores) (EAE mice): marked therapeutic efficacy |
| HGFISREFHRKYRIP (listed as Homo sapiens) [HSPB5 peptide 111-125] | 0.33 | – | – |
| HLLESDLFPTSTSLS (listed as Homo sapiens) [HSPB5 peptide 31-45] | 0.33 | – | – |
| HSP27 [HSPB1] | – | significantly ameliorated clinical paralysis; also recorded: therapeutic | EAE clinical scores over the course of the whole experiment (area under the curve) (EAE mice): significantly improved; production of pro-inflammatory cytokines by MOG stimulated splenocytes [1]: reduction; clinical paralysis / clinical scores of mice with EAE (mice with EAE): significant reduction of clinical paralysis |
| HSPB7: recombinant human small heat shock protein | – | ameliorated EAE | – |
| ITREEKPAVTAAPKK (listed as Homo sapiens) [HSPB5 peptide 161-175] | 0.08 | – | therapeutic efficacy of peptide in EAE (clinical scores) (EAE mice): therapeutic |
| LTITSSLSSDGVLTV (listed as Homo sapiens) [HSPB5 peptide 131-145] | 0.08 | – | therapeutic efficacy of peptide in EAE (clinical scores) (EAE mice): therapeutic |
| PPSFLRAPSWFDTGL (listed as Homo sapiens) [HSPB5 peptide 51-65] | 0.10 | – | – |
| QVSGPERTIPITREE (listed as Homo sapiens) [HSPB5 peptide 151-165] | 0.29 | – | – |
| RRPFFPFHSPSRLFD (listed as Homo sapiens) [HSPB5 peptide 11-25] | −0.11 | – | therapeutic efficacy of peptide in EAE (clinical scores) (EAE mice): therapeutic |
| SRLFDQFFGEHLLES (listed as Homo sapiens) [HSPB5 peptide 21-35] | 0.28 | – | – |
| STSLSPFYLRPPSFL (listed as Homo sapiens) [HSPB5 peptide 41-55] | 0.28 | – | – |
| αA-crystallin [HSPB4] | – | significantly ameliorated clinical paralysis; also recorded: therapeutic | EAE clinical scores over the course of the whole experiment (area under the curve) (EAE mice): significantly improved; production of pro-inflammatory cytokines by MOG stimulated splenocytes [1]: reduction; clinical paralysis / clinical scores of mice with EAE (mice with EAE): significant reduction of clinical paralysis |
| B1 | – | did improve clinical scores; also recorded: ameliorated EAE just as well as HSPB5 | production of pro-inflammatory cytokines by MOG stimulated splenocytes [1]: reduction; also recorded: suppressed; molecular chaperone activity [2]: partial loss of molecular chaperone activity |
| B2 | – | ameliorated EAE | – |
| B3 | – | ameliorated EAE | – |
| B4 | – | ameliorated EAE | – |
| B5 | – | ameliorated EAE | – |
| B6 | – | ameliorated EAE | – |
